Measured values published in the NIST ThermoML archive (doi:10.1021/acs.jced.6b00790).
± gives the expanded uncertainty stated by the source.

Test: mean ionic activity coefficient (dimensionless); mn = molality of the nth substance listed, in mol/kg
Conditions: 298.15 K, 100 kPa, Liquid, potentiometry

O=[N+]([O-])[O-].[Na+] [sodium nitrate] + O
Conditions	mean ionic activity coefficient
m1 = 0.01	0.893 ± 0.11
m1 = 0.05	0.811 ± 0.1
m1 = 0.1	0.766 ± 0.099
m1 = 0.2001	0.697 ± 0.091
m1 = 0.2999	0.663 ± 0.087
m1 = 0.4	0.638 ± 0.084
m1 = 0.5001	0.616 ± 0.082
m1 = 0.5999	0.576 ± 0.078
m1 = 0.7001	0.565 ± 0.076
m1 = 0.7998	0.545 ± 0.074
m1 = 0.9	0.518 ± 0.072
m1 = 0.9999	0.502 ± 0.07
